These results are taken from ChEMBL document CHEMBL1121921, “Synthesis and evaluation of the male antifertility properties of a series of N-unsubstituted sulfamates” (1981).

What all share (type): functional
Assay [1] deals with Rattus norvegicus. The assay can be described thus: Compound was evaluated for male antifertility activity by oral administration in propylene glycol to male Sprague-Dawley rats for 14 consecutive days at dose of 0.64 mmol/kg.
The test system of assay [2] is Rattus norvegicus. The assay can be described thus: Compound was evaluated for male antifertility activity by oral administration in propylene glycol to male Sprague-Dawley rats for 14 consecutive days at dose of 0.43 mmol/kg.
The subject of assay [3] is Rattus norvegicus. In words: Compound was evaluated for male antifertility activity by oral administration in propylene glycol to male Sprague-Dawley rats for 14 consecutive days at dose of 0.34 mmol/kg.
In assay [4] the test system is Rattus norvegicus. In words: Compound was evaluated for male antifertility activity by oral administration in propylene glycol to male Sprague-Dawley rats for 14 consecutive days at dose of 0.04 mmol/kg.
The test system of assay [5] is Rattus norvegicus. In words: Compound was evaluated for male antifertility activity by oral administration in propylene glycol to male Sprague-Dawley rats for 14 consecutive days at dose of 0.40 mmol/kg.
Assay [6] deals with Rattus norvegicus. In words: Compound was evaluated for male antifertility activity by oral administration in propylene glycol to male Sprague-Dawley rats for 14 consecutive days at dose of 0.07 mmol/kg.
Assay [7] relates to Rattus norvegicus. In words: Compound was evaluated for male antifertility activity by oral administration in propylene glycol to male Sprague-Dawley rats for 14 consecutive days at dose of 0.05 mmol/kg.
Assay [8] has as its system Rattus norvegicus. The assay can be described thus: Compound was evaluated for male antifertility activity by oral administration in propylene glycol to male Sprague-Dawley rats for 14 consecutive days at dose of 0.09 mmol/kg.
Assay [9] concerns Rattus norvegicus. In words: Compound was evaluated for male antifertility activity by oral administration in propylene glycol to male Sprague-Dawley rats for 14 consecutive days at dose of 0.18 mmol/kg.
The test system of assay [10] is Rattus norvegicus. The assay can be described thus: Compound was evaluated for male antifertility activity by oral administration in propylene glycol to male Sprague-Dawley rats for 14 consecutive days at dose of 0.68 mmol/kg.
Assay [11] relates to Rattus norvegicus. In words: Compound was evaluated for male antifertility activity by oral administration in propylene glycol to male Sprague-Dawley rats for 14 consecutive days at dose of 0.36 mmol/kg.
In assay [12] the test system is Rattus norvegicus. The assay can be described thus: Compound was evaluated for male antifertility activity by oral administration in propylene glycol to male Sprague-Dawley rats for 14 consecutive days at dose of 0.30 mmol/kg.

Turning to `NS(=O)(=O)OCCCOS(N)(=O)=O`, in the assay with Rattus norvegicus [1], the No. of implants/pregnancy is given as 6.7, the “No. of males cohabited” value was 5, the “No. of males mated” value is 5 and the Resorbing implants was determined as 94.4%. In addition, in the assay with Rattus norvegicus [2], the No. of implants/pregnancy is listed as 9.3, the “No. of males cohabited” value is 5, the “No. of males fertile” value was determined as 4 and the “No. of males mated” value was 5. The same compound displayed a Resorbing implants in the assay with Rattus norvegicus [2] of 73.6%.

Consider `CCCC(C)(COS(N)(=O)=O)COS(N)(=O)=O`, for which, in the assay with Rattus norvegicus [3], the No. of implants/pregnancy was 15.5, the “No. of males cohabited” value came to 4, the “No. of males fertile” value amounted to 4 and the “No. of males mated” value is recorded as 4. The Resorbing implants with Rattus norvegicus [3] was found to be 12.5%.

As for `NS(=O)(=O)OCCCCOS(N)(=O)=O`, in the assay on Rattus norvegicus [4], the No. of implants/pregnancy is recorded as 10.2, the “No. of males cohabited” value came to 5, the “No. of males fertile” value turned out to be 5 and the “No. of males mated” value is listed as 5. The compound also returned a Resorbing implants with Rattus norvegicus [4] of 56%. Besides, in the assay on Rattus norvegicus [5], the “No. of males cohabited” value was determined as 5, the “No. of males fertile” value is 0 and the “No. of males mated” value amounted to 5.

As to `CS(=O)(=O)OCCOS(C)(=O)=O` [ETHANE DIMETHANE SULFONATE], in the assay with Rattus norvegicus [6], the No. of implants/pregnancy is on record as 12.3, the “No. of males cohabited” value is 5, the “No. of males fertile” value is on record as 3 and the “No. of males mated” value is on record as 4. Also, the Resorbing implants in the assay with Rattus norvegicus [6] came to 30.3%. Besides, in the assay on Rattus norvegicus [7], the No. of implants/pregnancy is 9.9, the “No. of males cohabited” value amounted to 7, the “No. of males fertile” value amounted to 6 and the “No. of males mated” value was determined as 7. The compound also gave a Resorbing implants with Rattus norvegicus [7] of 35.2%. In the assay on Rattus norvegicus [8], the “No. of males cohabited” value is reported as 5, the “No. of males fertile” value came to 0 and the “No. of males mated” value is reported as 4.

Take `NS(=O)(=O)OCCOS(N)(=O)=O`: in the assay on Rattus norvegicus [9], the No. of implants/pregnancy is 10.8, the “No. of males cohabited” value is 10, the “No. of males fertile” value stood at 8 and the “No. of males mated” value is 9. This compound returned a Resorbing implants with Rattus norvegicus [9] of 40%. In the assay with Rattus norvegicus [10], the “No. of males cohabited” value came out at 5, the “No. of males fertile” value was found to be 0 and the “No. of males mated” value came to 5. Also, in the assay with Rattus norvegicus [11], the No. of implants/pregnancy worked out at 9.8, the “No. of males cohabited” value is listed as 8, the “No. of males fertile” value was found to be 1 and the “No. of males mated” value is 7. Further, the Resorbing implants in the assay with Rattus norvegicus [11] came out at 98.2%.

Regarding `NS(=O)(=O)OC1CCCCC1OS(N)(=O)=O` (stereo not drawn), in the assay on Rattus norvegicus [11], the No. of implants/pregnancy was determined as 14, the “No. of males cohabited” value is listed as 5, the “No. of males fertile” value was found to be 5 and the “No. of males mated” value is given as 5. Besides, in the assay on Rattus norvegicus [11], the Resorbing implants is recorded as 4.4%.

For the compound `NS(=O)(=O)OCCCCCCCCCCOS(N)(=O)=O`, in the assay on Rattus norvegicus [12], the No. of implants/pregnancy came out at 12.5, the “No. of males cohabited” value is 5, the “No. of males fertile” value is recorded as 4 and the “No. of males mated” value is 5. In addition, the Resorbing implants with Rattus norvegicus [12] is reported as 17.3%.

`CC(OS(N)(=O)=O)C(C)OS(N)(=O)=O` (stereo not drawn): in the assay with Rattus norvegicus [5], the No. of implants/pregnancy is given as 15, the “No. of males cohabited” value is recorded as 4, the “No. of males fertile” value worked out at 3 and the “No. of males mated” value was 3. Besides, the Resorbing implants in the assay on Rattus norvegicus [5] is 0%.
